Test results reported in patent US20180271873A1, “METHODS FOR TREATING VIRAL INFECTIONS” (priority 2015, published 2018).

Each molecule was assayed on GFP-expressing Zaire Ebolavirus Mayinga-GFP (assay: microbe, parasite or virus in culture). Conditions: HeLa, read-out: Activity (Biological activity, EC50).
Assay type: cell-based

| Compound | EC50 [µM] |
| --- | --- |
| Cc1cccc(/C=N/Nc2cc(N3CCOCC3)nc(OCc3ncccn3)n2)c1 [Compound 5, (E)-4-(6-(2-(3-Methylbenzylidene)hydrazinyl)-2-(pyrimidin-2-ylmethoxy)pyrimidin-4-yl)morpholine] | < 1 |
| Cc1cccc(/C=N/Nc2cc(N3CCOCC3)nc(OCc3nccc(C)n3)n2)c1 [Compound 50, (E)-4-(6-(2-(3-Methylbenzylidene)hydrazinyl)-2-((4-methylpyrimidin-2-yl)methoxy)pyrimidin-4-yl)morpholine] | < 1 |
| Cc1cccc(/C=N/Nc2cc(N3CCOCC3)nc(Oc3ccc4nccc(C)c4c3)n2)c1 [Compound 68, (E)-4-(6-(2-(3-Methylbenzylidene)hydrazinyl)-2-(4-methylquinolin-6-yloxy)pyrimidin-4-yl)morpholine] | < 1 |
| Cc1ccc(/C=N/Nc2cc(N3CCOCC3)nc(OCCc3ccccn3)n2)cc1 [Compound 56, (E)-4-(6-(2-(4-Methylbenzylidene)hydrazinyl)-2-(2-(pyridin-2-yl)ethoxy)pyrimidin-4-yl)morpholine] | < 1 |
| Cc1cccc(/C=N/Nc2cc(N3CCOCC3)nc(OCc3nc4ccccc4c(=O)[nH]3)n2)c1 [Compound 64, (E)-2-((4-(2-(3-Methylbenzylidene)hydrazinyl)-6-morpholinopyrimidin-2-yloxy)methyl)quinazolin-4(3H)-one] | < 1 |
| COc1cnc(COc2nc(N/N=C/c3cccc(C)c3)cc(N3CCOCC3)n2)nc1 [Compound 60, (E)-4-(2-((5-Methoxypyrimidin-2-yl)methoxy)-6-(2-(3-methylbenzylidene)hydrazinyl)pyrimidin-4-yl)morpholine] | < 1 |
| Cc1cccc(/C=N/N(C)c2cc(N3CCOCC3)nc(OCCc3ccccn3)n2)c1 [Compound 37, (E)-4-(6-(1-Methyl-2-(3-methylbenzylidene)hydrazinyl)-2-(2-(pyridin-2-yl)ethoxy)pyrimidin-4-yl)morpholine] | 1 to 50 |
